Data taken from EP3161491B1, “[…] FOR THE DETECTION OF THE MANIPULATION OF MUSCLE GROWTH IN A DOMESTIC ANIMAL” (Stichting Kwaliteitsgarantie Vleeskalversector, priority 2014, dated 2015).

Assays:
[1] = test system: anti-myostatin antibodies
Protocol: Calves were randomly assigned into treatment groups. Twenty one (21) Holstein-Friesian calves (12 male and 9 female) between 9 - 14 weeks of age were included in the study. […] The control group was only injected with the injection fluids, whereas the second group was treated with the myostatin propeptide fragment. The treatments were administered intramuscularly on day 0, day 35 and day 88 of the treatment. Animals were monitored during 19 weeks from the start of the treatment.
Myostatin propeptide fragment (SEQ ID NO 1) was dissolved in sterile arachis oil, and mixed with ViteSel, Freund's Adjuvant Incomplete, or Freund's Adjuvant Complete for injection. […] The control group was injected with the same injection fluid, but without the added peptide. […]
The coated microplate wells were coated with Imperacer® wash buffer "A" using washer-program "block", block against unspecific interaction with "chimera direct block" solution (240 µl/well, 1 min/RT) and with Imperacer® wash buffer "B". After this treatment, the microplate wells were ready for sample incubation. […]
The wells were subsequently washed with Imperacer® wash buffers "B" and "A". 30 µl/well of ready-to-use Imperacer® PCR-mastermix were added to each well. The wells were sealed using real-time PCR foil, and placed into the Imperacer® reader 50 cycles at 95°C with 12 sec per cycle, at 50°C for 30 sec and at 72°C for 30 sec. […]

[2] = Observation of general health of calves during the 19 weeks treatment period; type: in vivo, Holstein-Friesian calves; settings: three intramuscular treatments, 19 weeks observation
Protocol: Calves were randomly assigned into treatment groups.
All calves were treated with the myostatin propeptide fragment three times with during the observation period. Physical data and samples were collected during the life-time of the calves, such as general health, local reactions, and body weight. Serum samples were collected. Some clinical signs were observed, but they remained within a range that was considered normal for a 19 weeks fattening period. […] The animals were healthy at the time of slaughter and all slaughter samples were collected.

[3] = test system: myostatin pathway biomarkers; settings: change relative to non-manipulated reference animal
Protocol: Example 2 was repeated using bovine samples analysed in Example 1.
Detection Conjugate "CHI-Bovine-IgG" (conjugated antibody: anti-Bovine IgG-heavy and light chain Antibody, Sheep Polyclonal, catalogue number: A10-115; Supplier: Bethyl Laboratories, Inc., USA) was used instead of the mouse conjugate. All other Imperacer conjugates for the additional myostatin pathway biomarkers were prepared using standard methods as described in EP 2189539 ([0106]-[0122]). For the biomarkers p-AKT, p-FOXO, MyOD1, MyoG, FBO32, ALK type 1, Pax3, Myf-5, MuRF1, CDKN1 and CDK2, tissue homogenate instead of serum was used. Table 7: Biomarker analysis
The additional myostatin pathway biomarkers shown in Table 7 were quantified using immune-PCR.

Sequence: CKMSPINMLYFNGKEQIIYG [myostatin propeptide fragment]
- Amount of antibodies measured in sample ([1]; anti-myostatin IgG in calf blood serum, intramuscular treatment on day 0, day 35 and day 88): 382 ng/mL
- levels of measured anti-myostatin IgG antibodies and treatment ([1]; blind and open tests, compared to the negative control animals): clear association
- general health of the calves [2]: did not impact the general health of the calves
- (P)-SMAD2/ SMAD 3 ([3]; calf sample): -
- Act IIB ([3]; calf serum): +
- IgG anti-myostatin antibodies ([3]; calf serum): +
- Leptin ([3]; calf serum): +
- Myostatin Propeptide ([3]; calf serum): -
- (p)-FOxO ([3]; calf tissue homogenate): +
- ALK type 1 ([3]; calf tissue homogenate): -
- CDK2 ([3]; calf tissue homogenate): +
- CDKN1 A ([3]; calf tissue homogenate): +
- FBXO32 ([3]; calf tissue homogenate): -
- MuRF1 ([3]; calf tissue homogenate): -
- Myf-5 ([3]; calf tissue homogenate): +
- MyoD1 ([3]; calf tissue homogenate): +
- MyoG ([3]; calf tissue homogenate): +
- Pax 3 ([3]; calf tissue homogenate): +
- p-AKT ([3]; calf tissue homogenate): +
